Measurements reported in ChEMBL document CHEMBL1201862, “PubChem BioAssay data set” (2004).
Calls of active or inactive are those of the source.

Assays:
[1] = target: Peroxisome proliferator-activated receptor gamma/Nuclear receptor coactivator 1 (Homo sapiens, UniProt P37231); test: (§1) TR-FRET dose response biochemical High Throughput Screening assay for agonists of the steroid receptor coactivator 1 (SRC-1) recruitment by the peroxisome proliferator-activated receptor gamma (PPAR gamma): non-selective agonists. [Related pubchem assays (depositor defined):AID1300, AID1808, AID504735, AID631]; type: protein assay
[2] = target: Peroxisome proliferator-activated receptor gamma/Nuclear receptor coactivator 3 (Homo sapiens, UniProt P37231); test: as §1, with “3 (SRC-3)” for “1 (SRC-1)”, “assays: 1301 (Confirmation screen.), 1048 (Primary screen.)]” for “assays (depositor defined):AID1300, AID1808, AID504735, AID631]”; type: functional
[3] = target: Peroxisome proliferator-activated receptor gamma/Nuclear receptor coactivator 2 (Homo sapiens, UniProt P37231); test: TR-FRET dose response biochemical High Throughput Screening assay for agonists of the steroid receptor coactivator 2 (SRC-2) recruitment by the peroxisome proliferator-activated receptor gamma (PPAR gamma): non-selective agonists. [Related pubchem assays: 1297, 1032 ]; type: functional
SUMO-activating enzyme = SUMO-activating enzyme (Homo sapiens, UniProt Q9UBT2); test: blockers of UBC9-mediated SUMO conjugation – biochemical, AlphaScreen, SUMOylation inhibitor project, confirmation (AID 2018); type: functional
Coagulation factor XII = target: T1, Coagulation factor XII (Homo sapiens, UniProt P00748); type: functional;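 further: activated factor XIIa alpha cleaving a fluorogenic AMC peptide substrate; inhibitor potency from loss of enzyme activity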
T1 sequence (P00748 whole entry): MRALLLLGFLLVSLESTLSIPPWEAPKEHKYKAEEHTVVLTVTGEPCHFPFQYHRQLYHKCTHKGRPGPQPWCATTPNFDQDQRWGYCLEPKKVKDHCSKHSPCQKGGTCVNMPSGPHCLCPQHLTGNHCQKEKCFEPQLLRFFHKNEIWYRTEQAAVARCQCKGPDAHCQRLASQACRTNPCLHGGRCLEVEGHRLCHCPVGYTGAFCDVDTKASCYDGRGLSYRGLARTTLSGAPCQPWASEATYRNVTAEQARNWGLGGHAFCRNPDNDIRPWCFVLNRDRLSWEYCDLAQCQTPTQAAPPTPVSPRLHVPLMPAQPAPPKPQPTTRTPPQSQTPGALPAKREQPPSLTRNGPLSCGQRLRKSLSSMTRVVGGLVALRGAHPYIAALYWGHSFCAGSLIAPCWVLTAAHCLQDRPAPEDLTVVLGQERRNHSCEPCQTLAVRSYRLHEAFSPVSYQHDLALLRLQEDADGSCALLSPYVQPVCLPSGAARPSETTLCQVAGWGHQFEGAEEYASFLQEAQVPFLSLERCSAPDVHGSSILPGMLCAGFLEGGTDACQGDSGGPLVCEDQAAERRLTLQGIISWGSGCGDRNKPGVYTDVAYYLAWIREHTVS

[4] = target: Induced myeloid leukemia cell differentiation protein Mcl-1 (Homo sapiens, UniProt Q07820); type: functional
[5] = target: Eukaryotic translation initiation factor 4E (Mus musculus, UniProt P63073); test: blockers of eIF4G binding by eIF4E – biochemical, TR-FRET, dose response (AID 855); type: functional;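 further: potency for disrupting eIF4E binding to eIF4GI seen as loss of FRET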
[6] = target: DNA dC->dU-editing enzyme APOBEC-3A (Homo sapiens, UniProt P31941); test: Dose Response confirmation of small molecule APOBEC3A DNA Deaminase Inhibitors via a fluorescence-based single-stranded DNA deaminase assay. [Related pubchem assays (depositor defined):AID493011, AID493024]; type: functional
[7] = target: DNA dC->dU-editing enzyme APOBEC-3G (Homo sapiens, UniProt Q9HC16); type: functional;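 further: Dose-response counterscreen measuring inhibition of APOBEC3G DNA deaminase activity, run while confirming APOBEC3A inhibitors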
[8] = target: T2, Corticotropin-releasing factor receptor 2/Corticotropin-releasing factor-binding protein (Homo sapiens, UniProt P24387+Q13324); test: activators of CRF receptor 2 with binding protein – uHTS hits, confirmation (AID 602473); type: functional; conditions: read-out: EC50_Mean
T2 sequence (Q13324 whole entry): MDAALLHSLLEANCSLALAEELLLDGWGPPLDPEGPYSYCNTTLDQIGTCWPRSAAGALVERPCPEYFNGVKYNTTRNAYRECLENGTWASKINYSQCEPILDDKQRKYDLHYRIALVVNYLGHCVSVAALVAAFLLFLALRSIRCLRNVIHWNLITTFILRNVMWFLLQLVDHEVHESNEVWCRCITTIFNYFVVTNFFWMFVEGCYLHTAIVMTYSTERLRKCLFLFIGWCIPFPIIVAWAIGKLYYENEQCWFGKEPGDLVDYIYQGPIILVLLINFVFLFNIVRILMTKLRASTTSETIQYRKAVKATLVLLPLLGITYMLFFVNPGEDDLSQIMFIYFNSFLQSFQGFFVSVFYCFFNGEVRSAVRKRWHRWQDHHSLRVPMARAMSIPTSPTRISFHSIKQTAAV
T2 sequence (P24387 whole entry): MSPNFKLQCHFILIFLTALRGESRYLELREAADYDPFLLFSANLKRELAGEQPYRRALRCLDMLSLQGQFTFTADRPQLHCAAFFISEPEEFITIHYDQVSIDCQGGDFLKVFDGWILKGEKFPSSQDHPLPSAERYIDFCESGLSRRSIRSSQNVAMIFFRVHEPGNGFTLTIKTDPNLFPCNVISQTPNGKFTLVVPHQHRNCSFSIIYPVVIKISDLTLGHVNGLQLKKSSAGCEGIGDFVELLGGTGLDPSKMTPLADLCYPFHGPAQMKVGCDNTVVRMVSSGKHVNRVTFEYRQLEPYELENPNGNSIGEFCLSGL

Bcl-2-like protein 10 = target: T3, Bcl-2-like protein 10 (Homo sapiens, UniProt Q9HD36); test: Bcl-B/TR3 peptide binding disruption – biochemical, fluorescence polarization, FITC-TR3 peptide, selectivity assay for Bfl-1 inhibitor project, primary screen (AID 748);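 further: fluorescence polarization from a fluorescein-labelled TR3 peptide binding purified Bcl-B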
T3 sequence (Q9HD36 whole entry): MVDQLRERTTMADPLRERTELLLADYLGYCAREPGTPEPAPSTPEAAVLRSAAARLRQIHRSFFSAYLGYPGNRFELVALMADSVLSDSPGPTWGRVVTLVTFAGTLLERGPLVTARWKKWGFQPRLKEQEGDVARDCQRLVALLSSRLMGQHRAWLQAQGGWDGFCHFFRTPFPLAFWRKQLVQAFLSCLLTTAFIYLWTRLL

Estrogen receptor = target: T4, Estrogen receptor (Homo sapiens, UniProt P03372);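 further: potency for inhibiting coactivator peptide recruitment to the receptor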
T4 sequence (P03372 whole entry): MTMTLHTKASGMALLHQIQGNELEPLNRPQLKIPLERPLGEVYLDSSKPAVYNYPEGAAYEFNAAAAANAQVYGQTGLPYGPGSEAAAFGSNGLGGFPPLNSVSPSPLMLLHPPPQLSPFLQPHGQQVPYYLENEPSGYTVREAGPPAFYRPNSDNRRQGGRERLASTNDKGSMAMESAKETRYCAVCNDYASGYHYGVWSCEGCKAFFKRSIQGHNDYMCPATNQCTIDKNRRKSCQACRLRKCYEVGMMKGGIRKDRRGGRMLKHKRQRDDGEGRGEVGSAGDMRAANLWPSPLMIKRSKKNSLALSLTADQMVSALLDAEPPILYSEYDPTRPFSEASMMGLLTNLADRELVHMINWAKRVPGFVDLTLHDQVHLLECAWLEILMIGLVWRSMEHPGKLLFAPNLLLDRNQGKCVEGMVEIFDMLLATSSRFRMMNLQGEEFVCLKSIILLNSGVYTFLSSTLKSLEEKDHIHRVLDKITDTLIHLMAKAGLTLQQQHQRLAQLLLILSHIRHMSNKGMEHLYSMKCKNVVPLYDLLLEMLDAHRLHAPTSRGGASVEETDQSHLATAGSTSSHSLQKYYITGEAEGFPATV

Sequence of Induced myeloid leukemia cell differentiation protein Mcl-1 (Q07820 whole entry): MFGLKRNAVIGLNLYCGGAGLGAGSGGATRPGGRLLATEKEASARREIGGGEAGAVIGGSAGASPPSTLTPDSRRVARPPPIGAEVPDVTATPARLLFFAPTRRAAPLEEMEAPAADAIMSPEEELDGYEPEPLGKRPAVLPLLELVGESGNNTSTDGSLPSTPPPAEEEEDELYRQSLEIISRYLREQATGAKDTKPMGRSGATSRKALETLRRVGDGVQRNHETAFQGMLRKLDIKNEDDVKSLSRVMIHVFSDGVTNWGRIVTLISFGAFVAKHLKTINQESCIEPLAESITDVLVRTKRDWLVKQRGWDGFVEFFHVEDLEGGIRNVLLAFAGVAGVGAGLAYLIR
Sequence of Eukaryotic translation initiation factor 4E (P63073 whole entry): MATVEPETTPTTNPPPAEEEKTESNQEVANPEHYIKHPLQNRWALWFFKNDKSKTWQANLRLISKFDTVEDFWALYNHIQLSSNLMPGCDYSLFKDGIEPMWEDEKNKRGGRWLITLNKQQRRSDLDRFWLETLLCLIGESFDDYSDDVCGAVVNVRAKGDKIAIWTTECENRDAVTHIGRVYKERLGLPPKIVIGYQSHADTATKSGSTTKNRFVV
Sequence of SUMO-activating enzyme (Q9UBE0 whole entry): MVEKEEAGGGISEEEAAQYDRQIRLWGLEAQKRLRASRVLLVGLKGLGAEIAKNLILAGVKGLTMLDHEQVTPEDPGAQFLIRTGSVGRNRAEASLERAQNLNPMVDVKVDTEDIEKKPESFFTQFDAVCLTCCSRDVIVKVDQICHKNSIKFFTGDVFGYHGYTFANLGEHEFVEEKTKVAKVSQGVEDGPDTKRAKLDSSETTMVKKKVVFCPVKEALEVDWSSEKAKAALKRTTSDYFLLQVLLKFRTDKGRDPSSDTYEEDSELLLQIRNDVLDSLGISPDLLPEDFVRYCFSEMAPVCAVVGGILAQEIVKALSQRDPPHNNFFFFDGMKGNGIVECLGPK
Sequence of SUMO-activating enzyme (Q9UBT2 whole entry): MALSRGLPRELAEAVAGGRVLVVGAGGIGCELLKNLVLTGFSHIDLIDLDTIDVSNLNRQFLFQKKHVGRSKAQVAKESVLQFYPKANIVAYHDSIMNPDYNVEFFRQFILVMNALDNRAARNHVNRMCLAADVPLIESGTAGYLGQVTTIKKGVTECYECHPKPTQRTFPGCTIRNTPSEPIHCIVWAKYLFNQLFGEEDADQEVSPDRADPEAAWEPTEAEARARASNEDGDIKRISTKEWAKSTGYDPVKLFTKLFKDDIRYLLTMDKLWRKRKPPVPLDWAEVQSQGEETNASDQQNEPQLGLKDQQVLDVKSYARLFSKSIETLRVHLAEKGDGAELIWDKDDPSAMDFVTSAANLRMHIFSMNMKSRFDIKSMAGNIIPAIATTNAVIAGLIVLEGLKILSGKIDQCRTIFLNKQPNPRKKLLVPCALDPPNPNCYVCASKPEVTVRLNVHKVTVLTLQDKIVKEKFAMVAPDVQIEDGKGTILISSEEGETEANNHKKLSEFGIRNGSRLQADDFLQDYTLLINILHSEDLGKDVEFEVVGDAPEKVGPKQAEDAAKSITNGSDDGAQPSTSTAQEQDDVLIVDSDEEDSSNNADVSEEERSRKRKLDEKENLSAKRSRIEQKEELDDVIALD
Sequence of DNA dC->dU-editing enzyme APOBEC-3G (Q9HC16 whole entry): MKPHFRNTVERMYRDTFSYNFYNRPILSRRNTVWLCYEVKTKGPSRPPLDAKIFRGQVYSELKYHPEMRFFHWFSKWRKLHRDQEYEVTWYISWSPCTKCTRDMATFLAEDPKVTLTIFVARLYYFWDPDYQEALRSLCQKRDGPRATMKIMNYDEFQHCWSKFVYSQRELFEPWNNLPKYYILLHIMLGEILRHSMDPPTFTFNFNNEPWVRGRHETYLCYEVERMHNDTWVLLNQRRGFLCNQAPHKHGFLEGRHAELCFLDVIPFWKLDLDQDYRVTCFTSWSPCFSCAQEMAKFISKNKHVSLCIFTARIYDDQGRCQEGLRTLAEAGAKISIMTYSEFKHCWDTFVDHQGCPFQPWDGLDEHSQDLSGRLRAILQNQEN
Sequence of Peroxisome proliferator-activated receptor gamma/Nuclear receptor coactivator 2 (P37231 whole entry): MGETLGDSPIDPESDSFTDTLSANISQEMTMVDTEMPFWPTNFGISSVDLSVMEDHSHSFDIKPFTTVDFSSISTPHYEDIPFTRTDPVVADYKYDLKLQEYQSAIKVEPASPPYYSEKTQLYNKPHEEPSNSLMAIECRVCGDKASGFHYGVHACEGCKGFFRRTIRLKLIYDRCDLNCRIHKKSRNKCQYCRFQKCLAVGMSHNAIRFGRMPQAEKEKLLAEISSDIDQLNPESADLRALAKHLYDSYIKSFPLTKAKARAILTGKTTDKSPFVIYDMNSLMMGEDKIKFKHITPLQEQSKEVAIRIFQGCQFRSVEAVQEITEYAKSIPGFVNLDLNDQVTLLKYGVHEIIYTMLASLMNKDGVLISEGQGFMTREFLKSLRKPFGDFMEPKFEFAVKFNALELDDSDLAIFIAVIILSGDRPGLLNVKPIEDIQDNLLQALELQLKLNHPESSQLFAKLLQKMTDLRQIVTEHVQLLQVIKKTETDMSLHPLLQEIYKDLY
Sequence of Peroxisome proliferator-activated receptor gamma/Nuclear receptor coactivator 2 (Q15596 whole entry, further chain): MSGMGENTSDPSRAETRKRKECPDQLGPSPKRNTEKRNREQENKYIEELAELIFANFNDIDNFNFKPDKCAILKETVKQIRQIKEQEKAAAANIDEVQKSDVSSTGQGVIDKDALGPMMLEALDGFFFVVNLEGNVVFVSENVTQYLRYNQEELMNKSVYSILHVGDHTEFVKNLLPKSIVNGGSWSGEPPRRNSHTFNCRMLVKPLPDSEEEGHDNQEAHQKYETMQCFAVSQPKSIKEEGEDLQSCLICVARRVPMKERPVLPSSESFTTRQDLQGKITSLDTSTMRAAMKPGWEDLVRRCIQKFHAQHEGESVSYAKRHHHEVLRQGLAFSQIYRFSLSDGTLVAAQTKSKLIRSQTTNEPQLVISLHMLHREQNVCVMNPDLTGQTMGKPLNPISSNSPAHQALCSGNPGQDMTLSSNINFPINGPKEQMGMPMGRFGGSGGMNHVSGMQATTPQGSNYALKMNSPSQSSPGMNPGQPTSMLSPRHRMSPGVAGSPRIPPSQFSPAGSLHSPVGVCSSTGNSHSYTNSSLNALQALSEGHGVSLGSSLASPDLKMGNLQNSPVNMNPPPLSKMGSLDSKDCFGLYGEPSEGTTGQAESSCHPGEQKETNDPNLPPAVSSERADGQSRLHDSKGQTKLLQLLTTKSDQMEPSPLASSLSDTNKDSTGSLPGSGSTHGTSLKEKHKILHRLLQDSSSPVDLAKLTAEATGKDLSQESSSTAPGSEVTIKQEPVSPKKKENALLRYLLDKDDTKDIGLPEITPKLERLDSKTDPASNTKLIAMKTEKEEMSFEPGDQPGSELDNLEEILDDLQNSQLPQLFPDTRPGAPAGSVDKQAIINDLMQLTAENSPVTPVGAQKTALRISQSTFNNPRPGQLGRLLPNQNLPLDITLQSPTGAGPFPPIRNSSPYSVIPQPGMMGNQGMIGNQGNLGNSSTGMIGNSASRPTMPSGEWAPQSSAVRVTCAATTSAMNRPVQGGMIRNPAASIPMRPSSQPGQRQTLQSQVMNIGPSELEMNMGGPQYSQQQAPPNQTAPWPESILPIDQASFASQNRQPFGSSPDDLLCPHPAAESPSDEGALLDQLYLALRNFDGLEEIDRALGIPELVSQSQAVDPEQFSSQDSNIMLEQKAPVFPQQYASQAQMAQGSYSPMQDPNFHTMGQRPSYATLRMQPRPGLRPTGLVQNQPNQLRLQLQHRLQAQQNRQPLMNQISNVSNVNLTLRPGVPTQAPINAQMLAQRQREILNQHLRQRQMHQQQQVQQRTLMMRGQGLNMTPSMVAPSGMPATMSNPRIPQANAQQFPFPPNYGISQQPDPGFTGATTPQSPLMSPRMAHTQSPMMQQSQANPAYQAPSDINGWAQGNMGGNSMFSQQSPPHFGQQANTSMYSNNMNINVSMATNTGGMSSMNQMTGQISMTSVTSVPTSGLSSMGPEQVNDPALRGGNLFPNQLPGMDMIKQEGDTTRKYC
Sequence of DNA dC->dU-editing enzyme APOBEC-3A (P31941 whole entry): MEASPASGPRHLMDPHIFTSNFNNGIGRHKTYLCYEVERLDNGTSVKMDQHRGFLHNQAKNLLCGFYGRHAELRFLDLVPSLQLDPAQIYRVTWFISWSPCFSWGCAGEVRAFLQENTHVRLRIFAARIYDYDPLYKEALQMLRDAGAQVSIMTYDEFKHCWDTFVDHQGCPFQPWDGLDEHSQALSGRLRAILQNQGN

O=C(Nc1ccc(S(=O)(=O)Nc2ncccn2)cc1)c1ccc(Br)s1
EC50 [1]: > 79.4 µM (inactive)
EC50 [2]: > 79.4 µM (not active)
EC50 [3]: > 79.4 µM (not active)

CCc1nn(CC(=O)NC(C)CCc2ccccc2)c(=O)c2cc3cc(F)ccc3n12 (stereo not drawn)
IC50 (SUMO-activating enzyme): 45.3 µM (active)

CCc1cccc(CC)c1N(COC)C(=O)Cn1c(CO)nc2ccccc21
IC50 (Coagulation factor XII): > 50 µM (inactive)

COc1ccc(NC(C)C(=O)Nc2ccc(C#N)cc2)cc1Cl (stereo not drawn)
IC50 [4]: 35.9 µM (not active)
IC50 [5]: > 64 µM (inactive)

COC(=O)Cn1cc(/C=C/c2cc[n+](C)cc2)c2ccccc21
IC50 [6]: 3.05 µM (active)
IC50 [7]: 3.58 µM (active)
EC50 [8]: 8.34 µM (active)

COC(=O)CNc1c(-c2ccccn2)nc2ccc(Br)cn12
IC50 (Bcl-2-like protein 10): > 12.5 µM (inactive)

COc1ccccc1N1CCN(C(=O)c2cc3c(s2)CCC3)CC1
IC50 (Bcl-2-like protein 10): 36.6 µM (active)
IC50 (Estrogen receptor): 5.19 µM (active)
